This passage reports EC50 and CC50 results from patent US12030904B2 (priority 2020, dated 2024).

In one data set the test system is SARS-CoV-2. Briefly: microbe, parasite or virus in culture. The data set is classed as cell-based.
The next data set deals with MT4. Briefly: MT4 cytotoxicity (CC50). Conditions: read-out: MT4 CC50; Table 2a.
The test system of data set [1] is Recombinant Respiratory Syncytial virus strain A2 containing the firefly luciferase reporter (RSV-Fluc). Briefly: microbe, parasite or virus in culture. The data set is classed as cell-based.
A further data set in a line: MT4 cytotoxicity (CC50). Conditions: human, MT4 cells.
Data set [2] is described as follows: A549 cytotoxicity analysis (CellTiter-Glo). The data set is classed as cell-based. Particulars: human, A549 cells. On the procedure:
The cytotoxicity of compounds was determined in A549 cells in the following manner. Compounds (40 nL) were spotted onto 384-well Grenier plates prior to seeding 5000 A549 cells/well in a volume of 40 μL culture medium. The plates were incubated at 37° C. for 48 hours with 5% CO2. On day 2, 40 μL of CellTiter-Glo (Promega) was added and mixed 5 times. Plates were read for luminescence on an Envision (PerkinElmer) and the CC50 (compound concentration for reducing 50% of luminescence signal as a measure of cell viability) were calculated using a nonlinear regression model (four parameters). Two experiments were performed with technical duplicates.
In general terms: ATP-based viability assays read luminescence as a measure of living cells.

Setting [3] is: Severe acute respiratory syndrome coronavirus 2, 48 h, read-out: SARS-CoV-2 EC50.
Where [4] appears, read: human respiratory syncytial virus, NHBE, 72 h, read-out: RSV-Fluc EC50 (NHBE), NHBE cells, three days, Table 1.
Setting [5] is: Severe acute respiratory syndrome coronavirus 2, Table 3, read-out: SARS-CoV-2 EC50.
Setting [6] is: Severe acute respiratory syndrome coronavirus 2, read-out: SARS EC50.
Where [7] appears, read: human respiratory syncytial virus, NHBE, 72 h, read-out: RSV-Fluc EC50 (NHBE), NHBE cells, three days, Table 2.
Setting [8] is: human respiratory syncytial virus, NHBE, read-out: RSV EC50, Table 2a.

Read-outs that look alike come from different tables or passages of the source.

With `CCCCCCCCCCCCCCCCCCOC[C@H](COP(=O)(O)OC[C@H]1O[C@@](C#N)(c2ccc3c(N)ncnn23)[C@H](O)[C@@H]1O)OC(C)c1ccccc1` (single isomer, unassigned) [Example 28], the EC50 (as a rule, the concentration at which the effect is half-maximal) with SARS-CoV-2 (read-out: SARS EC50) came to 2300 nM; in data set [1] (read-out: RSV EC50, Table 2a), 75 nM; in data set [1] (read-out: RSV-Fluc EC50 (NHBE), NHBE cells, three days, Table 2), 70 nM. In addition, the CC50 (in general, the concentration giving 50% cytotoxicity) with MT4 came to 1060 nM.
Take `CCCCCCCCCCCCCCCCCCOC[C@H](COP(=O)(O)OC[C@H]1O[C@@](C#N)(c2ccc3c(N)ncnn23)[C@H](O)[C@@H]1O)OCc1cc(F)cc(F)c1` [Example 15, [(2R,3S,4R,5R)-5-(4-aminopyrrolo[2,1-f][1,2,4]triazin-7-yl)-5-cyano-3,4-dihydroxy-tetrahydrofuran-2-yl]methyl [(2R)-2-[(3,5-difluorophenyl)methoxy]-3-octadecoxy-propyl] hydrogen phosphate]: the figures for the EC50 (in the data set with SARS-CoV-2 (setting [3]); in data set [1] (setting [4])) were 260 nM and 80 nM, respectively. Besides, the midpoint of cytotoxicity in “MT4 cytotoxicity (CC50)” (MT4 CC50, Table 1a), the CC50, lay at 3310 nM. Moreover, half-maximal cytotoxicity in data set [2] (48 hours, Table 1) (CC50 at 48 h) was put at 13000 nM.
Regarding `CCCCCCCCCCCCCCCCCCOC[C@H](COP(=O)(O)OC[C@H]1O[C@@](C#N)(c2ccc3c(N)ncnn23)[C@H](O)[C@@H]1O)OCc1cc(F)cc(C#N)c1` [Example 16, [(2R,3S,4R,5R)-5-(4-aminopyrrolo[2,1-f][1,2,4]triazin-7-yl)-5-cyano-3,4-dihydroxy-tetrahydrofuran-2-yl]methyl [(2R)-2-[(3-cyano-5-fluoro-phenyl)methoxy]-3-octadecoxy-propyl] hydrogen phosphate], the figures for the EC50 (in the data set with SARS-CoV-2 (setting [3]); in data set [1] (setting [4])) were 220 nM and 60 nM, respectively. This molecule came in with a CC50 in the data set “MT4 cytotoxicity (CC50)” (MT4 CC50, Table 1a) of 433 nM. Also, in data set [2] (48 hours, Table 1), the CC50 at 48 h turned out to be 18000 nM.
As to `CCCCCCCC/C=C\CCCCCCCCOC[C@H](COP(=O)(O)OC[C@H]1O[C@@](C#N)(c2ccc3c(N)ncnn23)[C@H](O)[C@@H]1O)OCc1cc(F)cc(C#N)c1` [Example 69, ((2R,3S,4R,5R)-5-(4-aminopyrrolo[2,1-f][1,2,4]triazin-7-yl)-5-cyano-3,4-dihydroxytetrahydrofuran-2-yl)methyl ((R)-2-((3-cyano-5-fluorobenzyl)oxy)-3-(((Z)-octadec-9-en-1-yl)oxy)propyl) hydrogen phosphate], the EC50 turned out to be 150 nM in the data set with SARS-CoV-2 (setting [5]), 150 nM in the data set with SARS-CoV-2 (setting [6]), 24 nM in data set [1] (setting [7]) and 23 nM in data set [1] (setting [8]). In the data set “MT4 cytotoxicity (CC50)” (MT4 CC50, Table 2a), the CC50 was found to be 730 nM. Further, the CC50 at 48 h in data set [2] (Table 3) worked out at 860 nM.
As for `CCCCCCCCCCCCCCCCOC[C@H](COP(=O)(O)OC[C@H]1O[C@@](C#N)(c2ccc3c(N)ncnn23)[C@H](O)[C@@H]1O)OCc1cc(F)cc(C#N)c1` [Example 71, ((2R,3S,4R,5R)-5-(4-aminopyrrolo[2,1-f][1,2,4]triazin-7-yl)-5-cyano-3,4-dihydroxytetrahydrofuran-2-yl)methyl ((R)-2-((3-cyano-5-fluorobenzyl)oxy)-3-(hexadecyloxy)propyl) hydrogen phosphate], the EC50 in the data set with SARS-CoV-2 (setting [5]) was found to be 130 nM; with SARS-CoV-2 (setting [6]), 130 nM; in data set [1] (setting [7]), 30 nM; in data set [1] (setting [8]), 3 nM. The molecule further gave a CC50 in “MT4 cytotoxicity (CC50)” (MT4 CC50, Table 2a) of 404 nM. This molecule also registered a CC50 at 48 h in data set [2] (Table 3) of 370 nM.
Take `CCCCCCCCCCCCCCCCCCOC[C@H](COP(=O)(O)OC[C@H]1O[C@@](C#N)(c2ccc3c(N)ncnn23)[C@H](O)[C@@H]1O)Oc1ccc(C#N)c(OC(C)C)c1` [Example 72, ((2R,3S,4R,5R)-5-(4-aminopyrrolo[2,1-f][1,2,4]triazin-7-yl)-5-cyano-3,4-dihydroxytetrahydrofuran-2-yl)methyl ((R)-2-(4-cyano-3-isopropoxyphenoxy)-3-(octadecyloxy)propyl) hydrogen phosphate]: the EC50 came to 8350 nM with SARS-CoV-2 (setting [6]), 8 nM in data set [1] (setting [7]) and 17 nM in data set [1] (setting [8]). Besides, half-maximal cytotoxicity in the data set “MT4 cytotoxicity (CC50)” (MT4 CC50, Table 2a) (CC50) was put at 279 nM. This molecule also gave a CC50 at 48 h in data set [2] (Table 3) of 240 nM.
